In patent publication US20260234159A1, “SMALL MOLECULE TREATMENT OF FATTY LIVER DISEASE AND HCC” (SCANDIEDGE THERAPEUTICS AB, priority 2023, published 2026):
Read-outs that look alike come from different tables or passages of the source.

Columns and labels:
[1] = In vivo biosafety study in rats: histopathological and immunohistochemical examination; design: species or system Sprague Dawley male rats; conditions: 30 mg/kg, seven days
Experimental: In vivo biosafety studies. Healthy Sprague Dawley male rats (12 weeks old, 250-280 g) were obtained from Atatürk University Experimental Research Center ([…] Turkey) and housed under standard environmental conditions (temperature 20° C.-25° C., humidity 50±20% and 12-hour light/dark diurnal cycle). Food and water were available ad libitum. Rats were randomly separated into one control group and two experimental groups (30 mg/kg/day BX-912 or JNK-IN-5A, n=5). […] The control group were received the same amount of vehicle solution only. After 7 days, rats were anaesthetized, and blood samples were collected from the abdominal aorta for biochemical and haematological analysis. The plasma was separated and stored at -80° C. for further analysis. Major organs such as heart, kidney, liver, muscle, adipose, intestine (duodenum, ileum, jejunum), pancreas, colon, and stomach were collected from all the animals for further analysis. Selected organs were fixed in 10% neutral buffered formalin for histopathological examination. Histopathological examination. […] Immunohistochemical examination. […] Slides were counter stained with hematoxylin.

[2] = tested on: polychromatic erythrocytes; assay: Micronucleus frequencies (MNPCEs) as genotoxicity endpoint; type: in vivo, Sprague Dawley male rats; conditions: 30 mg/kg, seven days
Experimental: In addition to sampling for biochemical and haematological analysis, one drop of blood samples was obtained from the animals for evaluating micronucleus frequencies as genotoxicity endpoint at the end of the experiments. Three different smears of each rat were prepared using pre-coded and cold slides, then the slides air-dried at room temperature, and fixed in ethanol for 10 min, and stained with Giemsa. […] The incidence of MN-PCEs was determined by scoring a total of 3000 PCE per animal and results were expressed as % MN [12].

HSD fed rats = assay: In vivo efficacy study in high sucrose diet (HSD) steatosis rats; conditions: HSD plus 30 mg/kg seven days
From the text: In vivo efficacy studies. After 1-week acclimation period, rats were randomly separated into two groups: control group (n=5) and high sucrose group (n=20). The control group was fed with a standard diet while the others consumed high sucrose diet (HSD). Sucrose was purchased from Sigma Chemical Co. (St Louis, MO, USA) and supplied at the dose of 10% in the drink water for two weeks.
After 2 weeks, five rats in the HSD group were randomly sacrificed for conformation of NAFLD model. Then, the remaining rats in the HSD group were separated into three sub-groups (n=5): HSD group, HSD plus BX-912 group and HSD plus JNK-IN-5A group. BX-912 and JNK-IN-5A were dissolved in DMSO and were orally administrated using oral gavage for one week (30 mg/kg/day). The HSD group were treated with vehicle solution only.
At the end of the experiment, rats were sacrificed after being anesthetized. Blood samples were collected from the abdominal aorta and centrifuged at 8000 rpm for 15 min at 4° C. The plasma was separated and stored at −80° C. until further analysis. Other internal organs, including the heart, adipose tissues, liver, kidney, muscle, intestine (duodenum, ileum, jejunum), pancreas, colon and stomach were immediately removed and then snap frozen in liquid nitrogen and stored at −80° C.; the liver was also fixed in 10% formaldehyde for histopathological examination.
Histopathological examination. The liver tissues were fixed in 10% buffered formaldehyde solution. After fixation, the tissues were passed through graded alcohol and xylene series and embedded in paraffin blocks. 5 micrometer thick sections were taken serially from the paraffin blocks. Histopathological changes were evaluated by performing hematoxylin eosin staining on the sections taken. Sections were evaluated according to histopathological findings as none (−), mild (+), moderate (++) and severe (+++).
Immunohistochemical examination. After deparaffinization, the slides were immersed in antigen retrieval solution (pH 6.0) and heated in microwave for 15 min to unmask the antigens. The sections were then dipped in 3% H2O2 for 10 min to block endogenous peroxidase activity. Protein block was dropped onto the sections, washed with PBS for 10 min. Primary antibodies (8-OH-dG, Cat No: sc-66036, Diluent Ratio: 1/100, Santa Cruz) were prepared and applied according to the usage conditions. Expose mouse and rabbit specific HRP/DAB detection IHC kit were used as follows: sections were incubated with goat anti-mouse antibody, then with streptavidin peroxidase, and finally with 3,3′ diamino benzidine+chromogen. Slides were counter stained with hematoxylin. Immunoreactivity in the sections were graded as none (−), mild (+), moderate (++) and severe (+++).

HepG2 cells [3] = assay: Triglyceride (TAG) measurement assay, one week steatosis model; type: cell-based, human; conditions: Homo sapiens
Experimental: (§1) HepG2 wild type cells were purchased from genome engineering company Synthego. Cells were maintained with Roswell Park Memorial Institute growth media, RPMI, 1640 (R2405, Sigma-Aldrich) and supplemented with 10% fetal bovine serum (FBS, F7524, Sigma-Aldrich), 1% penicillin-streptomycin (P/S, P4333, Sigma-Aldrich). Steatosis induction media was prepared as high glucose Dulbecco's Modified Eagle Media (DMEM, D0819, Sigma-Aldrich) with 10% FBS, 1% P/S media supplemented with 10 μg/ml insulin (I9278, Sigma-Aldrich), and 10 μM T0901317 (T2320, Sigma-Aldrich). HepG2 cells were seeded 6×10^4 cells per well for 96-well plate and 1×10^6 cells per well for 6-well plate. HepG2 cells were incubated with steatosis induce media (SM) for one week by 3 day+2 day+2 day with total three times media exchange.
HepG2 cells were seeded at 6×10^4 cells per well into 96 well plate and induced steatosis for one week with 10 μM of target drugs. After steatosis induction, cells were washed with 200 μl of phosphate buffered saline (PBS) and triglyceride contents was measured by Triglyceride Assay Kit—Quantification (ab65336, Abcam) following manufacturer's instruction. Optical density (O.D) values were detected with microplate reader at 570 nm (Hidex Sense Beta Plus).
(§2) HepG2 cells were seeded at 60,000 cells per well in 96 well plate. Using steatosis induce media, the cells were treated with 10 μM of target drugs for one week. The media was changed 3 times at day 0, day 3 and day 5. TAG assay was performed using MAK266-1KT SDS Triglyceride Quantification Colorimetric kit and cell viability analysis was performed using MTT assay.

[4] = MTT cell viability after one week steatosis (ranking of target molecules); type: cell-based, human; conditions: human, HepG2 cells (wild type); HepG2, 10 μM, one week steatosis induce media, MTT; Control 100.00
Experimental: as §1, §2

JNK1/2/3 = assay: Western blot, JNK1/2/3 P54 and p46 isoforms; type: cell-based, human; conditions: 10 μM, 2 days
Experimental: HepG2 cells were seeded into a 6-well plate at 400,000 cells per well. After treatment with 10 μM of JNK-IN-5A and its derivatives for two days, lysates were harvested with CelLytic M (C2978, Sigma-Aldrich). […] SDS PAGE were performed using Mini-PROTEAN® TGX™ Precast Gels (Bio-Rad) and transferred using Trans-Blot® Turbo™ Transfer System (Bio-Rad). […] ImageQuantTMLAS 500 (29-0050-63, GE) was used to detect protein bands.

HepG2 cells [5] = assay: Invasion assay (transwell); type: cell-based, human; conditions: Homo sapiens, HepG2, 24 hr, read-out: invasiveness reduced by
Experimental: The effects of the treatment with the compounds on the invasion ability of HepG2 and Huh7 cells were determined by 8 μm pores transwell chamber (Corning™ 3464, USA).
(§3) Transwell membrane was coated with 100 μl collagen (Sigma C3867, USA) diluted with PBS to a concentration of 1 mg/ml. After overnight incubation at 4° C., the collagen solution was discarded and the membrane was washed with PBS. 100,000 cells in 200 μl serum free media together with the tested compounds were added into the upper well and 600 μl of 10% FBS supplemented growth media was added to the lower well as an invasive attractant in a 24-well plate. Cells were incubated at 37° C. in a CO2 incubator for one day. The cells were fixed with 3.7% formaldehyde for 30 minutes at room temperature and washed with PBS twice. The cells were stained with 1% crystal violet in PBS for 20 minutes and residual cells in inner membrane were swabbed gently with a cotton swab. Invaded cells located at the outer membrane were imaged by ZOE Fluorescent Cell Imager (Bio-Rad, USA) and counted by image. For wound healing assay, 100,000 cells per well were seeded into 24-well plates and grown until 95-100% confluent. Linear wound was created by using a 200 μl pipette tip. Image was recorded at the time point of day 0 until control group wound closure with 1 μM of compounds by ZOE Fluorescent Cell Imager (Bio-Rad, USA). Wound areas were measured using ImageJ software.

[6] = MTT cell viability / IC50 in growth media; type: cell-based, human; conditions: human, HepG2 cells; 10 μM, treatment for 2 days
Experimental: (§4) The cytotoxic effects of the synthesized drugs on the HepG2 cells were tested by MTT (Thiazolyl Blue Tetrazolium Bromide) method. HepG2 cells were seeded 2×10^4 cells per well in 96-well plate in 200 μL growth media. […] After the incubation period, 5 mg/ml MTT (M2128, Sigma-Aldrich) solution in PBS (10 μL) was added to each well. After 1 hr, the MTT solution and all media were removed from the wells. 100 μl of DMSO was added and mixed to dissolve the formazan crystals. Cell viability was analysed by measuring the absorbance of the dissolved formazan in a microplate reader at a wavelength of 570 nm with microplate reader (Hidex Sense Beta Plus).
(§5) HepG2 cells were maintained and used with RPMI 1640 (R2405, Sigma-Aldrich) supplemented with 10% fetal bovine serum (F7524, Sigma-Aldrich), 1% P/S (P4333, Sigma-Aldrich). 20,000 cells per well of HepG2 cells were seeded into a 96-well plate and triplicated for MTT assay and LDH assay. Cell viability was measured by MTT assay (M6494, ThermoFisher) and cytotoxicity was measured by LDH assay kit (ab65393, abcam) by following manufacturer's instructions. Optical density (O.D) was numerated using a microplate reader (Hidex Sense Meta Plus).

HepG2 cells [7] = assay: MTT cell viability / IC50 in growth media; type: cell-based, human
Experimental: as §4, §5

HepG2 cells [8] = assay: Wound healing assay; type: cell-based; conditions: Homo sapiens, HepG2, 96 h, day 4, untreated 100% wound closure, read-out: wound healing delayed by
Experimental: as §3

HepG2 cells [9] = assay: Mitochondrial membrane potential assay (TMRE); type: cell-based, human; conditions: 10 μM, one day
Experimental: HepG2 cells were seeded into a 6-well plate at 400,000 cells per well. After treatment with the compounds at desired concentration and time, TMRE (ab113852, abcam), Autophagy (ab139484, abcam), ROS (ab113851, abcam), and Lipid peroxidation (ab243377, abcam) assay were performed according to manufacturer's instructions. Fluorescence images were taken using ZOE™ Fluorescent Cell Imager (Biorad) and ROI of fluorescence intensity was measured and calculated by Image J. For microplate reader florescence assay, 40,000 of HepG2 cells were seeded into a 96-well plate and triplicated. GFP (Ex480 nm, Em530 nm) and RFP (Ex549 nm, Em574 nm) were measured using a microplate reader (Hidex Sense Meta Plus).

HepG2 cells [10] = assay: FACs analysis with PI staining (cell cycle); type: cell-based, human; conditions: PI FACs, 10 μM, 2 days
Experimental: 400,000 HepG2 cells were seeded in a 6-well plated and treated with 10 μM of the compounds for 2 days. Cells were fixed with 70% ethanol and stained with 50 μg/ml PI. Prepared cells were analysed using BD FACS Canto II Flow Cytometry system at PE-A channel 10,000 cells per group. The data was histogram plotted with BD FACSDiva 9.0.

In the case of O=C(Nc1cccc(Nc2ncc(Br)c(NCCc3cnc[nH]3)n2)c1)N1CCCC1 [BX-912], the “histological structures of major organs” value [1] is reported as “normal histological structures”, the “side effects on the rats” value [1] is reported as “no side effects” and the “8-OH-dG expression in liver tissues” value ([1]; IHC) is reported as “negative”. The genotoxic potential [2] was “non-genotoxic”, the “frequencies of MNPCEs compared to Ctrl animals” value ([2]; p>0.05) was “not statistically different” and the “degeneration in hepatocytes in liver tissues” value (HSD fed rats; HSD 3w severe) was “Mild”. For the same compound, the “degeneration in renal tubule epithelium” value (HSD fed rats; HSD 3w severe) was “mild”, the “fattening in the parenchyma cells of pancreas tissues” value (HSD fed rats; HSD 3w severe) was “mild” and the “steatosis in hepatocytes in liver tissues” value (HSD fed rats; HSD 3w severe) was “moderate”. The “8-OH-dG expression in hepatocytes” value (HSD fed rats; HSD 3w strong) was “significantly decreased”.
N#Cc1c(NC(=O)c2cccc3ccccc23)sc2c1CCN(CC(=O)Nc1ccnc(Cl)n1)C2 [PKL-B172] gave an activity at 10 µM (HepG2 cells [3]; 168 h, HepG2, 10 μM, one week steatosis induce media, Control 100.00, read-out: TAG (%)) of 22%, an activity at 10 µM (HepG2 cells [3]; HepG2, 168 h, ratio between TAG content and cell viability, Control 100.0, read-out: TAG/cell viability) of 40.9% and a viability at 1 week, 10 µM [4] of 53.7%. The “JNK1/2/3 p46 expression” value (JNK1/2/3) was “not significantly altered”, the inhibition at 1 µM (HepG2 cells [5]) was 72.3% and the viability at 2 days, 10 µM [6] was 62.7%. For the same compound, the IC50 (HepG2 cells [7]; Homo sapiens, 48 h, HepG2, treatment for 2 days, 30 μM to 30 nM) was 13.3 µM, the “cell viability of HepG2 cells” value (HepG2 cells [7]; especially in cancerous media) was “particularly low cell viability” and the inhibition at 1 µM (HepG2 cells [8]) was 60.7%. The mitochondrial membrane potential (HepG2 cells [9]) was “significantly decreased”, the “Cell population G0/G1” value (HepG2 cells [10]) was 16.7 and the “Cell population G2/M” value (HepG2 cells [10]) was 73.2. For the same compound, the “Cell population S” value (HepG2 cells [10]) was 2.7.
